According to patent publication US5140025A, “Thienotricylene for the treatment of bronchial diseases” (BYK Gulden Lomberg Chemische Fabrik GmbH, priority 1987, dated 1992):
Like-named read-outs stand apart in the source and are kept apart here.

Legend:
[1] = system: acetylcholine-induced bronchospasm; assay: Acetylcholine-induced bronchospasm in anaesthetised, spontaneously breathing guinea pigs, intravenous administration; assay type: in vivo, guinea pig (Pirbright White); details: for Mean bronchospasmolytic activity, percentage increase of Vmaxe vs control spasm / Mean bronchospasmolytic activity, percentage increase of tidal volume (TV) vs control spasm: 0-60 min; for Mean bronchospasmolytic activity, percentage increase of Vmaxe vs control spasm / Mean bronchospasmolytic activity, percentage increase of tidal volume (TV) vs control spasm / Bronchospasmolytic activity, percentage increase of Vmaxe vs control spasm / Bronchospasmolytic activity, percentage increase of tidal volume (TV) vs control spasm: x±SEM, N=10; for ED50: Cavia porcellus, iv, 1 h, mean activity 0-60 min; for Bronchospasmolytic activity, percentage increase of Vmaxe vs control spasm / Bronchospasmolytic activity, percentage increase of tidal volume (TV) vs control spasm: at 60 min
From the text: Effect of Intravenously Administered Telenzepine on Acetylchline-Induced Bronchospasms in Anaesthetised, Spontaneously Breathing Guinea Pigs
Method for simultaneously recording pharmacodynamic or toxic effects on interior sensitive receptors and the respiration of guinea pigs (U. Kilian, E. Muller, E. Ch. Dittmann and J. Hamacher, Arzneim.-Forsch. 28, 1699-1708, 1978).
Pirbright White, Interfauna (Tuttlingen), 350-450 g, male.
(§1) Ethylurethane 1.2 g/kg i.p. as 12.5% aqueous solution.
Pneumotachogram: Maximum flow velocities of the respiratory air during expiration (Vmaxe, "peak flow"), tidal volume (TV).
Acetylcholine as spasmogen, 0.2-0.3 μmol/kg i.v., dissolved in 0.9% NaCl.
-10 min control spasm, 0 min administration of substance, +2, +10, +20, +30, +60 min test spasms.
Determination of the effect of telenzepine on the parameters (mean and standard error of mean, n=10) and calculation of the bronchospasmolytic activity from this as percentage inhibition of the acetylcholine-induced decrease of Vmaxe and TV by means of time/effect curves. Computation of a dose/response curve of the mean bronchospasmolytic activity during the observation time (0-60 min) from the areas under the time/effect curves and reading of 1 h ED50 values. Determination of a dose/response curve of the bronchospasmolytic activity at time 60 min and reading ED50 values.

[2] = system: acetylcholine-induced changes in lung function parameters; assay: Acetylcholine-induced changes in lung function parameters in anaesthetised guinea pigs, intratracheal administration (whole-body plethysmography); assay type: in vivo, guinea pig (Pirbright White); details: for Bronchospasmolytic activity, percentage increase of compliance vs control / Bronchospasmolytic activity, percentage increase of conductance vs control: x±SEM, N=10; for ED50: Cavia porcellus
From the text: Effect of Intratracheally (i.t.) Administered (±)-Telenzepine on Acetylcholine-Induced Changes in Lung Function Parameters in Anaesthetised Guinea Pigs
Small-anmimal whole-body plethysmography in anaesthetised guinea pigs (method according to U. Heinreich and A. Wilhelm, in bga-Schriften 5/84, pp 255-266, MMW-Verlag, 1984).
Pirbright White, Interfauna (Tuttlingen). 290-350 g, male.
as §1
Plethysmographic measurement of maximum flow velocities of the respiratory air and tidal volume using tracheal catheter inserted through the natural passages; and measurement of intrapleural pressure using oesophageal catheter inserted through the natural passages.
0.001, 0.01, 0.1 and 1 μmol/kg (±)-telenzepine i.t., dissolved in 0.1 ml/kg 0.9% NaCl+0.1% Tween 80, acetylcholine as spasmogen administered by inhalation of ultrasonically nebulized 0.18% acetylcholine/0.9% NaCl solution.
-10 min control spasm, 0 min administration of substance, +5 and +30 min test spasms.
Computation of conductance (=capacity of airways to conduct air, equivalent to reciprocal of airway resistance) and of compliance (=distensibility of lung) from the recorded data, according to the method of Amdur and Mead (Amer. J. Physiol., 192, 364-368, 1958), before and at peak spasm, and determination of differences; calculation of percentage inhibition of the spasm after administration of the substance, in comparison with the control spasm; calculation of the dose/response curve and ED50 values of this bronchospasmolytic activity.

M1 receptor (ganglionic) = assay: Receptor affinity, electrically stimulated rabbit vas deferens in organ bath; details: vas deferens of the rabbit, agonist McN-A-343, Schild slope normalised to 1.00
Procedure: Isometric contractions (HSE force transducer, K-30; tilt and zones, BD-9 chart recorder) of isolated seminal duct sections of rabbits (male, white New Zealand rabbits, 2.5-3.5 kg) were recorded in an organ bath (10 ml, 31° C., gassing with carbogen, initial tension of the organs 0.75 g) under electrical stimultion (HSE stimulator; hook-shaped Pt electrode 1 cm below the water surface of the bath; 30 V, 0.5 ms, 0.05 Hz). After an equilibration time of 30 minutes, cumulative dose/response curves of McN-A-343 (10^-7 -2×10^-6 M) were recorded simultaneously on 8 organ sections in each case (control curves), using the technique described by van Rossum (1963). After 3 control curves, a fixed concentration of the agonist (for example 5×10^-7, 10^-6, 3×10^-6, 10^-5 or 3×10^-5 M) per organ section was applied and, after stabilisation of the effect, increasing concentrations of the agonist to be tested were added. The nutrient solution used had the following composition (mM): NaCl 118, KCl 4.7, CaCl2 ·2H2 O 2.5, MgSO4 ·7H2 O 0.6, KH2 PO 4 1.2, NaHCO3 25.0 and glucose 11.1. In order to block α2 -adrenoreceptors, the nutrient solution additionally contained 10^-6 M yohimbine.
The Tyrode nutrient solution used had the following composition (mM): NaCl 130, KCl 2.0, CaCl2 ·2H2 O 1.8, MgCl2 ·6H2 O 0.98, NaHCO3 12.0, NaH2 PO4 0.42 and glucose monohydrate 5.6. pA2 values (-log of the molar dissociation constants of the competitive antagonist-receptor complex) were determined by linear regression using the Schild plot: pA2 =-log [B/(x-1)], (Arunlakshana and Schild, 1959).

[3] = system: modified Shay rat (lesion formation and acid secretion); assay: Antiulcerogenic and secretion-inhibiting action on the modified Shay rat; assay type: in vivo; details: Rattus norvegicus, iv, 4 h, modified Shay rat, i.v., interpolated dose, 4 h, N=24
From the text: The excellent gastric protective action and the gastric secretion-inhibiting action of the compound (+)-4,9-dihydro-3-methyl-4-[(4-methyl-1-piperazinyl)-acetyl]-10H-thieno[3,4-b][1,5]benzodiazepin-10-one (=compound 1 in Table 8 below) in comparison with the corresponding (-)-enantiomer (=compound 3) and with the racemate (=compound 2) can be detected in studies on the modified Shay rat. The effect of the stated compounds after intravenous (i.v.) administration on the formation of lesions and the acid secretion in the modified Shay rat is shown in Table 8 below.
Ulcers are provoked in rats (female, 180-200 g, 4 animals per cage on high grids) which have fasted for 24 hours, by pylorus ligature (under diethyl ether anaesthesia) and oral administration of 100 mg/10 ml/kg of acetylsalicylic acid. The substances to be tested are administered intravenously (1 ml/kg) directly after the pylorus ligature. The wound is closed by means of Michel clamps. 4 hours afterwards, the animals are sacrificed under anaesthesia with ether by Atlas dislocation, and resection of the stomach.
The stomach is opened along the greater curvature and clamped to a cork sheet, the amount of secreted gastric juice (volume) is determined first and its HCl content (titration with sodium hydroxide solution) being determined subsequently. The number and size (=diameter) of ulcers present are determined using a stereomicroscope, under 10×magnification. The product of severity (according to the following point scale) and number of ulcers serves as an individual lesion index.
The reduction in the means lesion index of each treated group compared with the control group (=100%) serves as a measure of the antiulcerogenic effect. The ED50 is the dose which reduces the mean lesion index or the HCl secretion by 50% compared with the control.

With `Cc1scc2c1N(C(=O)CN1CCN(C)CC1)c1ccccc1NC2=O` (racemic) [(±)-telenzepine, 4,9-dihydro-3-methyl-4-[(4-methyl-1-piperazinyl)-acetyl]-10H-thieno[3,4-b][1,5]benzodiazepin-10-one] the “Mean bronchospasmolytic activity, percentage increase of Vmaxe vs control spasm” value ([1]; 0.03 μmol/kg i.v.) was 7 ± 3%, the “Mean bronchospasmolytic activity, percentage increase of tidal volume (TV) vs control spasm” value ([1]; 0.03 μmol/kg i.v.) was 7 ± 3% and the “Mean bronchospasmolytic activity, percentage increase of Vmaxe vs control spasm” value ([1]; 0.05 μmol/kg i.v.) was 22 ± 3%. The “Mean bronchospasmolytic activity, percentage increase of tidal volume (TV) vs control spasm” value ([1]; 0.05 μmol/kg i.v.) was 26 ± 4%, the “Mean bronchospasmolytic activity, percentage increase of Vmaxe vs control spasm” value ([1]; 0.1 μmol/kg i.v.) was 61 ± 8% and the “Mean bronchospasmolytic activity, percentage increase of tidal volume (TV) vs control spasm” value ([1]; 0.1 μmol/kg i.v.) was 68 ± 9%. For the same compound, the “Mean bronchospasmolytic activity, percentage increase of Vmaxe vs control spasm” value ([1]; 1 μmol/kg i.v.) was 81 ± 4%, the “Mean bronchospasmolytic activity, percentage increase of tidal volume (TV) vs control spasm” value ([1]; 1 μmol/kg i.v.) was 84 ± 4% and the “Mean bronchospasmolytic activity, percentage increase of Vmaxe vs control spasm” value ([1]; 5 μmol/kg i.v.) was 75 ± 3%. For the same compound, the “Mean bronchospasmolytic activity, percentage increase of tidal volume (TV) vs control spasm” value ([1]; 5 μmol/kg i.v.) was 86 ± 2%, the ED50 ([1]; read-out: ED50 of mean bronchospasmolytic activity, TV) was 0.07 µmol/kg and the ED50 ([1]; read-out: ED50 of mean bronchospasmolytic activity, Vmaxe) was 0.08 µmol/kg. For the same compound, the “Bronchospasmolytic activity, percentage increase of Vmaxe vs control spasm” value ([1]; 0.03 μmol/kg i.v.) was 11 ± 4%, the “Bronchospasmolytic activity, percentage increase of tidal volume (TV) vs control spasm” value ([1]; 0.03 μmol/kg i.v.) was 12 ± 6% and the “Bronchospasmolytic activity, percentage increase of Vmaxe vs control spasm” value ([1]; 0.05 μmol/kg i.v.) was 25 ± 3%. For the same compound, the “Bronchospasmolytic activity, percentage increase of tidal volume (TV) vs control spasm” value ([1]; 0.05 μmol/kg i.v.) was 32 ± 5%, the “Bronchospasmolytic activity, percentage increase of Vmaxe vs control spasm” value ([1]; 0.1 μmol/kg i.v.) was 70 ± 9% and the “Bronchospasmolytic activity, percentage increase of tidal volume (TV) vs control spasm” value ([1]; 0.1 μmol/kg i.v.) was 78 ± 11%. The “Bronchospasmolytic activity, percentage increase of Vmaxe vs control spasm” value ([1]; 1 μmol/kg i.v.) was 82 ± 5%, the “Bronchospasmolytic activity, percentage increase of tidal volume (TV) vs control spasm” value ([1]; 1 μmol/kg i.v.) was 85 ± 5% and the “Bronchospasmolytic activity, percentage increase of Vmaxe vs control spasm” value ([1]; 5 μmol/kg i.v.) was 80 ± 4%. For the same compound, the “Bronchospasmolytic activity, percentage increase of tidal volume (TV) vs control spasm” value ([1]; 5 μmol/kg i.v.) was 91 ± 3%, the “dose range of dose- and time-dependent inhibition of acetylcholine-induced bronchospasm” value ([1]; i.v.) was 0.03-1 μmol/kg i.v and the “persistence of maximum effect” value ([1]; i.v., observation period) was no less than 1 h. For the same compound, the “Bronchospasmolytic activity, percentage increase of compliance vs control” value ([2]; 5 min, 0.001 μmol/kg i.t.) was 5 ± 1%, the “Bronchospasmolytic activity, percentage increase of conductance vs control” value ([2]; 5 min, 0.001 μmol/kg i.t.) was 12 ± 3% and the “Bronchospasmolytic activity, percentage increase of compliance vs control” value ([2]; 5 min, 0.01 μmol/kg i.t.) was 50 ± 9%. The “Bronchospasmolytic activity, percentage increase of conductance vs control” value ([2]; 5 min, 0.01 μmol/kg i.t.) was 62 ± 10%, the “Bronchospasmolytic activity, percentage increase of compliance vs control” value ([2]; 5 min, 0.1 μmol/kg i.t.) was 34 ± 10% and the “Bronchospasmolytic activity, percentage increase of conductance vs control” value ([2]; 5 min, 0.1 μmol/kg i.t.) was 46 ± 10%. For the same compound, the “Bronchospasmolytic activity, percentage increase of compliance vs control” value ([2]; 5 min, 1 μmol/kg i.t.) was 57 ± 9%, the “Bronchospasmolytic activity, percentage increase of conductance vs control” value ([2]; 5 min, 1 μmol/kg i.t.) was 65 ± 9% and the “Bronchospasmolytic activity, percentage increase of compliance vs control” value ([2]; 30 min, 0.001 μmol/kg i.t.) was 13 ± 3%. The “Bronchospasmolytic activity, percentage increase of conductance vs control” value ([2]; 30 min, 0.001 μmol/kg i.t.) was 20 ± 5%, the “Bronchospasmolytic activity, percentage increase of compliance vs control” value ([2]; 30 min, 0.01 μmol/kg i.t.) was 49 ± 9% and the “Bronchospasmolytic activity, percentage increase of conductance vs control” value ([2]; 30 min, 0.01 μmol/kg i.t.) was 51 ± 9%. For the same compound, the “Bronchospasmolytic activity, percentage increase of compliance vs control” value ([2]; 30 min, 0.1 μmol/kg i.t.) was 51 ± 9%, the “Bronchospasmolytic activity, percentage increase of conductance vs control” value ([2]; 30 min, 0.1 μmol/kg i.t.) was 54 ± 7% and the “Bronchospasmolytic activity, percentage increase of compliance vs control” value ([2]; 30 min, 1 μmol/kg i.t.) was 89 ± 4%. For the same compound, the “Bronchospasmolytic activity, percentage increase of conductance vs control” value ([2]; 30 min, 1 μmol/kg i.t.) was 84 ± 2%, the ED50 ([2]; 5 min, 5 min p.a., read-out: ED50 of bronchospasmolytic activity, compliance) was 0.3 µmol/kg and the ED50 ([2]; 5 min, 5 min p.a., read-out: ED50 of bronchospasmolytic activity, conductance) was 0.05 µmol/kg. The ED50 ([2]; 0.5 h, 30 min p.a., read-out: ED50 of bronchospasmolytic activity, compliance) was 0.03 µmol/kg, the ED50 ([2]; 0.5 h, 30 min p.a., read-out: ED50 of bronchospasmolytic activity, conductance) was 0.03 µmol/kg and the “dose range of time- and dose-dependent inhibition of acetylcholine-induced reduction of conductance and compliance” value ([2]; i.t.) was 0.001-1 μmol/kg i.t. The “efficacy at 30 min compared with 5 min after administration” value ([2]; i.t.) was “more pronounced at 30 min than at 5 min”, the “pA2 ± SEM, M1 receptor (ganglionic)” value (M1 receptor (ganglionic)) was 8.86 ± 0.06 and the ED50 ([3]; read-out: Gastric protective action, reduction of lesion index, about ED50) was roughly 0.042 mg/kg. It also gave an ED50 ([3]; read-out: Inhibition of acid secretion, reduction of HCl secretion, about ED50) of roughly 0.18 mg/kg.
